According to patent US20220332699A1 (SAGE THERAPEUTICS, INC., priority 2019, published 2022):

Target: CYP46A1 (Homo sapiens, UniProt Q9Y6A2)
Experiment: CYP46A1 Enzyme Assay 2 (testosterone substrate, HPLC-MS)
Format: biochemical
Conditions: read-out: IC50 (CYP46A1 inhibitory activity)
Method: Briefly, in a 384-well plate format, 10 μL per well of an enzyme-substrate mixture of CYP46A1 (5 μM final concentration) and Testosterone ([…] final concentration) were dispensed to wells containing test compound. For CYP46A1 titration, 5 μL per well of serially diluted CYP46A1 (concentrations including 10 μM, 5 μM, and 2.5 μM) and Testosterone (concentration of […]) were dispensed. For Testosterone titration, 5 μL per well of serially diluted Testosterone (concentrations including 10 μM, 5 μM, and 2.5 μM) and CYP46A1 (concentration of 5 μM) were dispensed. The plates were centrifuged at 1000 rpm for 30 seconds, and then sealed and incubated at 37° C. for 30 minutes. The plate was removed from the incubator, and then 10 μL per well of NADPH-generating system were dispensed to initiate the reaction. The plates were incubated at 37° C. for 15 minutes, added with 80 μL per well of 100% methanol consisting 1 ng/ml diclofenac as internal standard, and then transferred for HPLC-MS.

Sequence of CYP46A1 (Q9Y6A2 whole entry): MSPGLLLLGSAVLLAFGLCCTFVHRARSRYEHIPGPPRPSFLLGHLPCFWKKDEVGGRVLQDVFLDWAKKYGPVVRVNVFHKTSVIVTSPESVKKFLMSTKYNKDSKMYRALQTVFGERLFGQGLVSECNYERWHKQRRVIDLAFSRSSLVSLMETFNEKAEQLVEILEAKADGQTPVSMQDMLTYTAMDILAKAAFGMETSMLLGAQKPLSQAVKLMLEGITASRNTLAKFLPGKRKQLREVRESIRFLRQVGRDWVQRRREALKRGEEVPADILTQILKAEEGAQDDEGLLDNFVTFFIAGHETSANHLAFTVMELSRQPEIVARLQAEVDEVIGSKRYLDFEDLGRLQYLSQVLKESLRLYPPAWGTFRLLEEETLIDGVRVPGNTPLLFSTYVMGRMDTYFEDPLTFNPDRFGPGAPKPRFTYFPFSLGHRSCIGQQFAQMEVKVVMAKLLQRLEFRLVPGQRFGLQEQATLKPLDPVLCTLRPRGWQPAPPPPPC

| IC50 [nM] | Structure (SMILES) |
| --- | --- |
| < 100 | N#CC1(Cc2ccc(F)c(F)c2)CCN(C(=O)c2cccnc2-c2ccncc2)CC1 [Compound A69, 1-([2,4′-bipyridine]-3-carbonyl)-4-(3,4-difluorobenzyl)piperidine-4-carbonitrile] |
| > 1000 | N#CC1(Cc2ccc(F)cc2)CCN(C(=O)c2cccnc2-n2ccnc2)CC1 [Compound A16, 1-(2-(1H-imidazol-1-yl)nicotinoyl)-4-(4-fluorobenzyl)piperidine-4-carbonitrile] |
| < 100 | CC[C@@H](c1ccc(F)cc1)C1(C#N)CCN(C(=O)c2cccnc2-c2ccncn2)CC1 [Compound A216, (S)-4-(1-(4-fluorophenyl)propyl)-1-(2-(pyrimidin-4-yl)nicotinoyl)piperidine-4-carbonitrile] |
| < 100 | N#CC1(Cc2ccc(C(F)(F)F)cc2F)CCN(C(=O)c2cccnc2-c2ccncc2)CC1 [Compound A255, 1-([2,4′-bipyridine]-3-carbonyl)-4-(2-fluoro-4-(trifluoromethyl)benzyl)piperidine-4-carbonitrile] |
| < 100 | N#CC1(Cc2ccc(F)c(F)c2)CCN(C(=O)c2cccnc2-c2ccncn2)CC1 [Compound A206, 4-(3,4-difluorobenzyl)-1-(2-(pyrimidin-4-yl)nicotinoyl)piperidine-4-carbonitrile] |
| 100 to 1000 | CC(C)(O)c1ccc(CC2(C#N)CCN(C(=O)c3cccnc3-c3ccncn3)CC2)cc1 [Compound A223, 4-(4-(2-hydroxypropan-2-yl)benzyl)-1-(2-(pyrimidin-4-yl)nicotinoyl)piperidine-4-carbonitrile] |
| > 1000 | N#CC1(Cc2ccc(F)cc2)CCN(C(=O)c2cccnc2-c2ccnnc2)CC1 [Compound A200, 4-(4-fluorobenzyl)-1-(2-(pyridazin-4-yl)nicotinoyl)piperidine-4-carbonitrile] |
| < 100 | N#CC1(Cc2cc(C(F)(F)F)ccc2F)CCN(C(=O)c2cccnc2-c2ccncc2)CC1 [Compound A283, 1-([2,4′-bipyridine]-3-carbonyl)-4-(2-fluoro-5-(trifluoromethyl)benzyl)piperidine-4-carbonitrile] |
| > 1000 | N#CC1(Cc2ccc(F)cc2)CCN(C(=O)c2cccnc2-c2ncncc2F)CC1 [Compound A233, 4-(4-fluorobenzyl)-1-(2-(5-fluoropyrimidin-4-yl)nicotinoyl)piperidine-4-carbonitrile] |
| > 1000 | Cc1ccc(C(=O)N2CCC(C#N)(Cc3ccc(F)cc3)CC2)c(-c2ccncn2)n1 [Compound A249, 4-(4-fluorobenzyl)-1-(6-methyl-2-(pyrimidin-4-yl)nicotinoyl)piperidine-4-carbonitrile] |
| < 100 | CC(c1ccc(C(F)(F)F)cc1)C1(C#N)CCN(C(=O)c2cccnc2-c2ccncc2)CC1 (stereo in doubt) [Compound A269, (S)-1-([2,4′-bipyridine]-3-carbonyl)-4-(1-(4-(trifluoromethyl)phenyl)ethyl)piperidine-4-carbonitrile] |
| < 100 | N#CC1(Cc2ccc(F)cc2)CCN(C(=O)c2cc(F)ccc2-c2ccncn2)CC1 [Compound A219, 1-(5-fluoro-2-(pyrimidin-4-yl)benzoyl)-4-(4-fluorobenzyl)piperidine-4-carbonitrile] |
| < 100 | N#CC1(Cc2ccc(C(F)(F)F)cc2F)CCN(C(=O)c2cccnc2-c2ccncn2)CC1 [Compound A240, 4-(2-fluoro-4-(trifluoromethyl)benzyl)-1-(2-(pyrimidin-4-yl)nicotinoyl)piperidine-4-carbonitrile] |
| < 100 | C[C@@H](c1ccc(C(F)(F)F)cc1)C1(C#N)CCN(C(=O)c2cccnc2-c2ccncn2)CC1 [Compound A250, (S)-1-(2-(pyrimidin-4-yl)nicotinoyl)-4-(1-(4-(trifluoromethyl)phenyl)ethyl)piperidine-4-carbonitrile] |
| 100 to 1000 | N#CC1(Cc2cccnc2)CCN(C(=O)c2cccnc2-c2ccncc2)CC1 [Compound A72, 1-{[2,4′-bipyridine]-3-carbonyl}-4-[(pyridin-3-yl)methyl]piperidine-4-carbonitrile] |
| < 100 | N#CC1(Cc2c(F)cc(C(F)(F)F)cc2F)CCN(C(=O)c2cccnc2-c2ccncc2)CC1 [Compound A280, 1-([2,4′-bipyridine]-3-carbonyl)-4-(2,6-difluoro-4-(trifluoromethyl)benzyl)piperidine-4-carbonitrile] |
| < 100 | N#CC1(Cc2ccc(F)c(C(F)(F)F)c2)CCN(C(=O)c2cccnc2-c2ccncc2)CC1 [Compound A278, 1-([2,4′-bipyridine]-3-carbonyl)-4-(4-fluoro-3-(trifluoromethyl)benzyl)piperidine-4-carbonitrile] |
| < 100 | N#CC1(Cc2cccc(C(F)(F)F)c2)CCN(C(=O)c2cccnc2-c2ccncn2)CC1 [Compound A264, 1-(2-(pyrimidin-4-yl)nicotinoyl)-4-(3-(trifluoromethyl)benzyl)piperidine-4-carbonitrile] |

| IC50 [nM] | Structure (SMILES) |
| --- | --- |
| < 100 | CC(c1cc(F)cc(F)c1)C1(C#N)CCN(C(=O)c2cccnc2-c2ccncc2)CC1 (stereo in doubt) [Compound A259, (S)-1-([2,4′-bipyridine]-3-carbonyl)-4-(1-(3,5-difluorophenyl)ethyl)piperidine-4-carbonitrile] |
| 100 to 1000 | N#CC1(Cc2ccc(F)cc2)CCN(C(=O)c2cccnc2-c2cnco2)CC1 [Compound A56, 4-(4-fluorobenzyl)-1-(2-(oxazol-5-yl)nicotinoyl)piperidine-4-carbonitrile] |
| 100 to 1000 | N#CC1(Cc2ccc(C3CC3)cn2)CCN(C(=O)c2cccnc2-c2ccncn2)CC1 [Compound A226, 4-((5-cyclopropylpyridin-2-yl)methyl)-1-(2-(pyrimidin-4-yl)nicotinoyl)piperidine-4-carbonitrile] |
| 100 to 1000 | N#CC1(Cc2ccc(C(F)(F)F)nc2)CCN(C(=O)c2cccnc2-c2ccncn2)CC1 [Compound A222, 1-(2-(pyrimidin-4-yl)nicotinoyl)-4-((6-(trifluoromethyl)pyridin-3-yl)methyl)piperidine-4-carbonitrile] |
| < 100 | C[C@H](c1ccc(C(F)(F)F)cc1F)C1(C#N)CCN(C(=O)c2cccnc2-c2ccncn2)CC1 [Compound A287, (S)-4-(1-(2-fluoro-4-(trifluoromethyl)phenyl)ethyl)-1-(2-(pyrimidin-4-yl)nicotinoyl)piperidine-4-carbonitrile] |
| > 1000 | N#CC1(Cc2cnc(C(F)(F)F)nc2)CCN(C(=O)c2cccnc2-c2ccncn2)CC1 [Compound A239, 1-(2-(pyrimidin-4-yl)nicotinoyl)-4-((2-(trifluoromethyl)pyrimidin-5-yl)methyl)piperidine-4-carbonitrile] |
| 100 to 1000 | N#CC1(CC2CC(F)(F)C2)CCN(C(=O)c2cccnc2-c2ccncn2)CC1 [Compound A54, 4-((3,3-difluorocyclobutyl)methyl)-1-(2-(pyrimidin-4-yl)nicotinoyl)piperidine-4-carbonitrile] |
| < 100 | C[C@H](c1c(F)cccc1F)C1(C#N)CCN(C(=O)c2cccnc2-c2ccncn2)CC1 [Compound A243, (S)-4-(1-(2,6-difluorophenyl)ethyl)-1-(2-(pyrimidin-4-yl)nicotinoyl)piperidine-4-carbonitrile] |
| < 100 | N#CC1(Cc2ccc(Cl)cc2F)CCN(C(=O)c2cccnc2-c2ccncc2)CC1 [Compound A11, 1-{[2,4′-bipyridine]-3-carbonyl}-4-[(4-chloro-2-fluorophenyl)methyl]piperidine-4-carbonitrile] |
| < 100 | COc1ccc(CC2(C#N)CCN(C(=O)c3cccnc3-c3ccncn3)CC2)cc1 [Compound A63, 4-(4-methoxybenzyl)-1-(2-(pyrimidin-4-yl)nicotinoyl)piperidine-4-carbonitrile] |
| < 100 | N#CC1(Cc2ccc(F)cc2C(F)(F)F)CCN(C(=O)c2cccnc2-c2ccncc2)CC1 [Compound A277, 1-([2,4′-bipyridine]-3-carbonyl)-4-(4-fluoro-2-(trifluoromethyl)benzyl)piperidine-4-carbonitrile] |
| 100 to 1000 | CS(=O)(=O)c1ccc(CC2(C#N)CCN(C(=O)c3cccnc3-c3ccncn3)CC2)cc1 [Compound A204, 4-(4-(methylsulfonyl)benzyl)-1-(2-(pyrimidin-4-yl)nicotinoyl)piperidine-4-carbonitrile] |
| < 100 | C[C@H](c1ccc(C(F)(F)F)cc1)C1(C#N)CCN(C(=O)c2cccnc2-c2ccncn2)CC1 [Compound A251, (R)-1-(2-(pyrimidin-4-yl)nicotinoyl)-4-(1-(4-(trifluoromethyl)phenyl)ethyl)piperidine-4-carbonitrile] |
| < 100 | N#CC1(Cc2ccccc2Cl)CCN(C(=O)c2cccnc2-c2ccncc2)CC1 [Compound A21, 1-([2,4′-bipyridine]-3-carbonyl)-4-(2-chlorobenzyl)piperidine-4-carbonitrile] |
| < 100 | N#CC1(Cc2cc(F)ccc2F)CCN(C(=O)c2cccnc2-c2ccncc2)CC1 [Compound A282, 1-([2,4′-bipyridine]-3-carbonyl)-4-(2,5-difluorobenzyl)piperidine-4-carbonitrile] |
| < 100 | N#CC1(Cc2cccc(Cl)c2)CCN(C(=O)c2cccnc2-c2ccncc2)CC1 [Compound A22] |
| < 100 | N#CC1(Cc2cccc3ccccc23)CCN(C(=O)c2cccnc2-c2ccncn2)CC1 [Compound A225, 4-(naphthalen-1-ylmethyl)-1-(2-(pyrimidin-4-yl)nicotinoyl)piperidine-4-carbonitrile] |
| < 100 | C[C@H]1CN(C(=O)c2cccnc2-c2ccncn2)CC[C@]1(C#N)Cc1ccc(F)cc1 [Compound A248, (3R,4R)-4-(4-fluorobenzyl)-3-methyl-1-(2-(pyrimidin-4-yl)nicotinoyl)piperidine-4-carbonitrile] |
